Patent US8426392B2, “Method for providing emergency contraception” (Laboratoire HRA-Pharma, priority 2009, dated 2013)
Entries after “also recorded” stand apart in the source; their conditions may differ. Like-named read-outs stand apart in the source and are kept apart here. Marks after values point to notes of the source that are not given here.

Legend:
[1] = Phase III pregnancy rates after 30 mg ulipristal acetate tablet by food intake prior to treatment; assay type: in vivo, human; details: for Observed PR (pregnancy rate): 30 mg tablet
Method: With respect to clinical efficacy, data on last food intake prior to study drug was collected in a subset of subjects (n=1185) included in the phase III program of development of the 30 mg ulipristal acetate tablet for emergency contraception. Pregnancy rates (PR) were compared between women who reported having eaten within two hours prior to treatment intake versus those who reported having eaten only earlier.

[2] = used within 72 hours of unprotected intercourse; cited from earlier work
[3] = Food interaction study: bioavailability of a single 30 mg oral dose of ulipristal acetate in fed and fasting states; details: for AUC(0-t) / AUC(0-inf) / Cmax / Tmax / half-life: female, human, plasma, oral, 30 mg; for AUC(0-t): AUC0-t; for AUC(0-inf): AUC0-∞
Method: (§1) A specific food interaction study was conducted, in which the pharmacokinetic profile of ulipristal acetate and its main metabolite 3877A was evaluated after single administration of a 30-mg ulipristal acetate micronized tablet either under fasted conditions or after a high-fat breakfast. The main pharmacokinetic parameters were evaluated, including maximum plasma concentration (Cmax), area under the drug concentration curve (AUC) from time 0 to time of last determinable concentration or to infinity, and the time to maximum plasma concentration (tmax).
(§2) A second oral administration followed, after at least a 21-day wash-out period.
(§3) Analysis of Cmax and AUC was carried out by analysis of variance using PROC MIXED® program on the logarithmically transformed data. The 90% standard confidence interval limits for relative treatment differences was calculated by geometric means based on logarithmic transformation of the intra-individual ratios of Cmax and AUC.
(§4) The analysis of tmax was based on Wilocoxon-Mann-Whitney test adapted according to the methodology of Koch. Estimate for treatment difference and 90% confidence interval was estimated according to the method of Moses.

[4] = in vivo
Method: as §1, §2, §3, §4

[5] = Fed vs. Fasted condition, ANOVA
[6] = fasted, single 30 mg tablet, mean ± SD
[7] = fed (high-fat breakfast), single 30 mg tablet, mean ± SD

## CC(=O)O[C@]1(C(C)=O)CC[C@H]2[C@@H]3CCC4=CC(=O)CCC4=C3[C@@H](c3ccc(N(C)C)cc3)C[C@@]21C [ulipristal acetate, 17α-acetoxy-11β-[4-N,N-dimethylamino-phenyl)-19-norpregna-4,9-diene-3,20-dione]
[1]; food intake 2 h or more before ulipristal acetate intake
  Expected PR (pregnancy rate): 5.56%
[1]; food intake 2 h or more before ulipristal acetate intake, n=905
  Observed PR (pregnancy rate): 1.44%
[1]; food intake less than 2 h before ulipristal acetate intake
  Expected PR (pregnancy rate): 5.27%
[1]; food intake less than 2 h before ulipristal acetate intake, n=279
  Observed PR (pregnancy rate): 1.79%
[1]; phase III trials, eaten within two hours prior to intake versus earlier
  effect of food on efficacy in emergency contraception (pregnancy rate): the same therapeutic efficacy; also recorded: no significant effect
[2]
  efficacy for preventing pregnancy compared with levonorgestrel: as efficacious as levonorgestrel
[3]; [5]
  AUC0-t, point estimate of the fed/fasted ratio of least squares geometric means: 123.30^a %
  AUC0-∞, point estimate of the fed/fasted ratio of least squares geometric means: 126.20^b %
  Cmax, point estimate of the fed/fasted ratio of least squares geometric means: 56.25%
[3]; compared with administration in a fasted state
  higher mean AUC0-∞ with a high-fat breakfast: 25%
[3]; fasted, single 30 mg tablet, median (range)
  tlag: 0.00 (0.00-0.00) h
[3]; fed (high-fat breakfast), single 30 mg tablet, median (range)
  tlag: 0.00 (0.00-0.50) h
[3]; [6]
  AUC(0-t): 467 ng·h/mL
  AUC(0-inf): 474 ng·h/mL
[3]; [7]
  AUC(0-t): 566 ng·h/mL
  AUC(0-inf): 608 ng·h/mL
[3]; fasted, single 30 mg ulipristal acetate micronized tablet, healthy women, mean ± SD
  Cmax: 173 ng/mL
[3]; fed (high-fat breakfast), single 30 mg ulipristal acetate tablet, mean ± SD
  Cmax: 99.2 ng/mL
[3]; Tmax (median), fasted state, as stated for the printed matter
  Tmax: 0.75 h
[3]; Tmax (median), with a high-fat breakfast, as stated for the printed matter
  Tmax: 3 h
[3]; t1/2, fasted, single 30 mg tablet, mean ± SD
  half-life: 2230 ± 431 min
[3]; t1/2, fed (high-fat breakfast), single 30 mg tablet, mean ± SD
  half-life: 2160 ± 467 min
[3]; terminal elimination half-life, average, independently of the food condition
  half-life: ~2160 min
[3]; tmax, fasted, single 30 mg tablet, median (range)
  Tmax: 0.75 h
[3]; tmax, fed (high-fat breakfast), single 30 mg tablet, median (range)
  Tmax: 3 h

## CNc1ccc([C@H]2C[C@@]3(C)[C@@H](CC[C@]3(OC(C)=O)C(C)=O)[C@@H]3CCC4=CC(=O)CCC4=C32)cc1 [3877A, 17α-acetoxy-11β-[4-N-methylamino-phenyl)-19-norpregna-4,9-diene-3,20-dione]
[4]; human
  terminal elimination half-life: around 30 h
[4]; human, 30 mg
  AUC0-∞: 0.265 µg·h/mL
  AUC(0-t): 0.244 µg·h/mL
  Cmax: 86.5 ng/mL
  Tmax: 45 min
  t1/2: 30.0 ± 7.56^c h
[4]
  AUC0-t, point estimate of the fed/fasted ratio of least squares geometric means: 121.72^a %
  AUC0-∞, point estimate of the fed/fasted ratio of least squares geometric means: 118.73^c %
  Cmax, point estimate of the fed/fasted ratio of least squares geometric means: 62.45%
